These results are taken from patent US11191811B2, “Osteocalcin as a treatment for frailty associated with aging” (THE TRUSTEES OF COLUMBIA UNIVERSITY IN THE CITY OF NEW YORK, priority 2014, dated 2021).

Read-outs that look alike come from different tables or passages of the source.

The target of one experiment is T1, gamma-carboxylase (Homo sapiens, UniProt P38435).
T1 sequence (P38435 1-758): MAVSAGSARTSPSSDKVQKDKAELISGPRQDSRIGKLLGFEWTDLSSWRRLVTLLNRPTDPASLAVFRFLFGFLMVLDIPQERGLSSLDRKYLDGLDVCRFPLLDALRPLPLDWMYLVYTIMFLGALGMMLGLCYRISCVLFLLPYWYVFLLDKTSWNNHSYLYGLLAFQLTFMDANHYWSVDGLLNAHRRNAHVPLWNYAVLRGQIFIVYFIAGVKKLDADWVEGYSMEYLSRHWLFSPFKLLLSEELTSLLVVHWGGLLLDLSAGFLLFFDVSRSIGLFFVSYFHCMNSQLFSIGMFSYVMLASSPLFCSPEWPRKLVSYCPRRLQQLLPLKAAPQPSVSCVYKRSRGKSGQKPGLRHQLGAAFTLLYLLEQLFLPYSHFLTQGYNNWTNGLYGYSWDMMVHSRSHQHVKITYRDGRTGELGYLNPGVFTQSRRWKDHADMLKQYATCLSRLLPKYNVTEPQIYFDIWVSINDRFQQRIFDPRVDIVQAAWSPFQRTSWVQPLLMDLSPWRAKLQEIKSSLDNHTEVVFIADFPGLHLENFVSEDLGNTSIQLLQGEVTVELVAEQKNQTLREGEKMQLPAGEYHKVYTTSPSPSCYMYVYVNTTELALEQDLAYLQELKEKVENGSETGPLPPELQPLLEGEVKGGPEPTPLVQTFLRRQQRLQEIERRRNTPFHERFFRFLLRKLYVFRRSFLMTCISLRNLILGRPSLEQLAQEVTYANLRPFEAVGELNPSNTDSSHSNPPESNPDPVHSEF
The settings on record: thiol-specific inhibitors; cited from earlier work.

The test system of the next experiment is osteoblasts. The experiment in a line: Gene expression in osteoblasts treated with IL-6. Type of experiment: cell-based. The source says:
It was observed that treating osteoblasts with IL-6 decreased expression of Osteocalcin, thereby explaining why the circulating levels of total (carboxylated and uncarboxylated forms) osteocalcin are […] in Il6−/− mice. More importantly, IL-6 increased the expression in osteoblasts of Rankl, a cytokine that favors osteoclast differentiation and decreased the expression of Osteoprotegerin (Opg), a decoy receptor for Rankl and an inhibitor of bone resorption (Karsenty and Wagner, 2002, Developmental Cell 2:389-406; Palmqvist et al., 2002, J. Immunol. 169:3353-3362). This observation is consistent with the fact that the circulating levels of the undercarboxylated and active form of osteocalcin are decreased in Il6−/− mice (FIG. 29E). The regulation of Il-6 expression by osteocalcin signaling in myofibers and of bone resorption by IL-6 also explains why circulating levels of CTX, a biomarker of bone resorption, were low after exercise in Il6−/− and Gprc6aMck−/− mice (FIG. 29G-H). These experiments reveal the existence of a feed-forward regulation between osteocalcin production in bone and IL-6 synthesis in muscle that is necessary for the increase in muscle function during exercise. This regulatory loop should synergize with the ability of IL-6 to favor liver gluconeogenesis and lipolysis, since these two other functions of IL-6 increase the pool of nutrients made available for myofibers during exercise.
Serum osteocalcin, PINP, CTX, and insulin levels were measured using ELISA assays. Blood glucose level was measured using an Accu-Check glucometer. Urine 3-MHT was measured as previously described (Aranibar et al., 2011, Anal. Biochem. 410:84-91). Determination of cAMP accumulation was performed using a commercial kit (R&D). For gene expression, 1 μg of total RNA was reverse transcribed into cDNA. qPCR analyses were performed using a SYBER green master mix (Applied Biosciences) and a CFX-Connect real time PCR (Bio-Rad). Relative expression levels of each gene were normalized to that of Hprt or Gapdh. For in situ hybridization, muscle was frozen in liquid N2-cooled methylbutane. Samples were sectioned at 10 μm using a cryostat. In situ hybridization was performed with a DIG-labeled riboprobe as previously described (Oury et al., 2011, Cell 144:796-809).

As for `CCN1C(=O)C=CC1=O` [N-ethylmaleimide], the gamma-carboxylase enzyme activity result at gamma-carboxylase is given as “inhibited”.

For the compound `O=C([O-])c1cc[c]([Hg][OH])cc1` [pHMB, p-hydroxymurcuribenzoate], the gamma-carboxylase enzyme activity entry at gamma-carboxylase is given as “inhibited”.

In the case of “IL-6: interleukin-6 (IL-6), a myokine whose circulating levels raise during exercise”, in the experiment on osteoblasts, the “expression of Osteocalcin in osteoblasts” value is reported as “decreased”, the “expression of Osteoprotegerin (Opg) in osteoblasts” value is given as “decreased” and the “expression of Rankl in osteoblasts” value is given as “increased”. Moreover, in the experiment on osteoblasts (listed as interleukin-6), the “expression of Osteocalcin in osteoblasts” value is recorded as “inhibits” and the “expression of Rankl in osteoblasts” value is reported as “stimulating”.
